According to the supplement of paper PMC10307832:

Columns and labels:
Test in all cases: relative viability (nuclei count vs DMSO), 5 days (fraction); higher = more cells survive
IU1-47 = compound: CC1=CC(=C(N1C2=CC=C(C=C2)Cl)C)C(=O)CN3CCCCC3 [IU1-47]
Summary of the method: (§1)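 After an overnight hold at 37 °C, lung cancer cell lines in 1536-well plates were pinned with five library-drug doses (not always all listed), each √10 from the next, on vehicle-anchored plates. The cells stayed 5 days without fresh medium, then a one-step fix, permeabilisation and Hoechst stain preceded 4× imaging and MetaXpress nuclear counts. A plate passed only with control CV under 25% and at least one doubling. Viability is the median, over plates, of treated-well nuclei relative to vehicle-well nuclei.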

FG-4592 = compound: Cc1nc(C(=O)NCC(=O)O)c(O)c2ccc(Oc3ccccc3)cc12 [FG-4592]
Summary of the method: as §1

IU1-47 + Luminespib = compound: CC1=CC(=C(N1C2=CC=C(C=C2)Cl)C)C(=O)CN3CCCCC3 [IU1-47] + CCNC(=O)c1noc(-c2cc(C(C)C)c(O)cc2O)c1-c1ccc(CN2CCOCC2)cc1 [Luminespib] (partner 0.01 µM)
Summary of the method: (§2)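 A single step with final 0.05% Triton X-100, 1% formaldehyde and 1 ug/ml Hoechst fixed the cells and stained nuclei 5 days after treatment. Lung cancer cell lines in 1536-well plates had been treated by pin tool the day after seeding with one drug alone or a fixed anchor-drug dose plus five library-drug doses (not always all listed) in √10 steps, and nuclei were counted on 4× images. Relative viability is the ratio of nuclei in treated wells to nuclei in vehicle wells, taken as the median of duplicate plates.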

IU1-47 + Foretinib = compound: CC1=CC(=C(N1C2=CC=C(C=C2)Cl)C)C(=O)CN3CCCCC3 [IU1-47] + COc1cc2c(Oc3ccc(NC(=O)C4(C(=O)Nc5ccc(F)cc5)CC4)cc3F)ccnc2cc1OCCCN1CCOCC1 [Foretinib] (partner 0.25 µM)
Summary of the method: as §2

IU1-47 + OSI-027 = compound: CC1=CC(=C(N1C2=CC=C(C=C2)Cl)C)C(=O)CN3CCCCC3 [IU1-47] + COc1cccc2cc(-c3nc([C@H]4CC[C@H](C(=O)O)CC4)n4ncnc(N)c34)[nH]c12 [OSI-027] (partner 0.5 µM)
Summary of the method: as §2

IU1-47 + Tozasertib = compound: CC1=CC(=C(N1C2=CC=C(C=C2)Cl)C)C(=O)CN3CCCCC3 [IU1-47] + Cc1cc(Nc2cc(N3CCN(C)CC3)nc(Sc3ccc(NC(=O)C4CC4)cc3)n2)n[nH]1 [Tozasertib] (partner 0.1 µM)
Summary of the method: as §2

IU1-47 + Dasatinib = compound: CC1=CC(=C(N1C2=CC=C(C=C2)Cl)C)C(=O)CN3CCCCC3 [IU1-47] + Cc1nc(Nc2ncc(C(=O)Nc3c(C)cccc3Cl)s2)cc(N2CCN(CCO)CC2)n1 [Dasatinib] (partner 0.075 µM)
Summary of the method: as §2

IU1-47 + Phenformin = compound: CC1=CC(=C(N1C2=CC=C(C=C2)Cl)C)C(=O)CN3CCCCC3 [IU1-47] + N=C(N)NC(=N)NCCc1ccccc1 [Phenformin] (partner 250 µM)
Summary of the method: as §2

FG-4592 + Luminespib = compound: Cc1nc(C(=O)NCC(=O)O)c(O)c2ccc(Oc3ccccc3)cc12 [FG-4592] + CCNC(=O)c1noc(-c2cc(C(C)C)c(O)cc2O)c1-c1ccc(CN2CCOCC2)cc1 [Luminespib] (partner 0.01 µM)
Summary of the method: as §2

FG-4592 + Foretinib = compound: Cc1nc(C(=O)NCC(=O)O)c(O)c2ccc(Oc3ccccc3)cc12 [FG-4592] + COc1cc2c(Oc3ccc(NC(=O)C4(C(=O)Nc5ccc(F)cc5)CC4)cc3F)ccnc2cc1OCCCN1CCOCC1 [Foretinib] (partner 0.25 µM)
Summary of the method: as §2

FG-4592 + OSI-027 = compound: Cc1nc(C(=O)NCC(=O)O)c(O)c2ccc(Oc3ccccc3)cc12 [FG-4592] + COc1cccc2cc(-c3nc([C@H]4CC[C@H](C(=O)O)CC4)n4ncnc(N)c34)[nH]c12 [OSI-027] (partner 0.5 µM)
Summary of the method: as §2

FG-4592 + Tozasertib = compound: Cc1nc(C(=O)NCC(=O)O)c(O)c2ccc(Oc3ccccc3)cc12 [FG-4592] + Cc1cc(Nc2cc(N3CCN(C)CC3)nc(Sc3ccc(NC(=O)C4CC4)cc3)n2)n[nH]1 [Tozasertib] (partner 0.1 µM)
Summary of the method: as §2

FG-4592 + Dasatinib = compound: Cc1nc(C(=O)NCC(=O)O)c(O)c2ccc(Oc3ccccc3)cc12 [FG-4592] + Cc1nc(Nc2ncc(C(=O)Nc3c(C)cccc3Cl)s2)cc(N2CCN(CCO)CC2)n1 [Dasatinib] (partner 0.075 µM)
Summary of the method: as §2

FG-4592 + Phenformin = compound: Cc1nc(C(=O)NCC(=O)O)c(O)c2ccc(Oc3ccccc3)cc12 [FG-4592] + N=C(N)NC(=N)NCCc1ccccc1 [Phenformin] (partner 250 µM)
Summary of the method: as §2

NCI-H1623
relative viability (IU1-47; 0.08 µM): 1.04 | relative viability (IU1-47; 0.253 µM): 0.981 | relative viability (IU1-47; 0.8 µM): 0.974 | relative viability (IU1-47; 2.53 µM): 0.812 | relative viability (IU1-47; 8 µM): 0.882 | relative viability (FG-4592; 0.08 µM): 0.964 | relative viability (FG-4592; 0.253 µM): 0.824 | relative viability (FG-4592; 0.8 µM): 0.858 | relative viability (FG-4592; 2.53 µM): 1.05 | relative viability (FG-4592; 8 µM): 0.769 | relative viability (IU1-47 + Luminespib; first compound 0.08 µM): 0.602 | relative viability (IU1-47 + Luminespib; first compound 0.253 µM): 0.611 | relative viability (IU1-47 + Luminespib; first compound 0.8 µM): 0.519 | relative viability (IU1-47 + Luminespib; first compound 2.53 µM): 0.456 | relative viability (IU1-47 + Luminespib; first compound 8 µM): 0.661 | relative viability (IU1-47 + Foretinib; first compound 0.08 µM): 1.05 | relative viability (IU1-47 + Foretinib; first compound 0.253 µM): 0.903 | relative viability (IU1-47 + Foretinib; first compound 0.8 µM): 0.892 | relative viability (IU1-47 + Foretinib; first compound 2.53 µM): 0.841 | relative viability (IU1-47 + Foretinib; first compound 8 µM): 0.833 | relative viability (IU1-47 + OSI-027; first compound 0.08 µM): 0.452 | relative viability (IU1-47 + OSI-027; first compound 0.253 µM): 0.451 | relative viability (IU1-47 + OSI-027; first compound 0.8 µM): 0.449 | relative viability (IU1-47 + OSI-027; first compound 2.53 µM): 0.434 | relative viability (IU1-47 + OSI-027; first compound 8 µM): 0.391 | relative viability (IU1-47 + Tozasertib; first compound 0.08 µM): 0.494 | relative viability (IU1-47 + Tozasertib; first compound 0.253 µM): 0.43 | relative viability (IU1-47 + Tozasertib; first compound 0.8 µM): 0.428 | relative viability (IU1-47 + Tozasertib; first compound 2.53 µM): 0.451 | relative viability (IU1-47 + Tozasertib; first compound 8 µM): 0.428 | relative viability (IU1-47 + Dasatinib; first compound 0.08 µM): 0.588 | relative viability (IU1-47 + Dasatinib; first compound 0.253 µM): 0.571 | relative viability (IU1-47 + Dasatinib; first compound 0.8 µM): 0.588 | relative viability (IU1-47 + Dasatinib; first compound 2.53 µM): 0.591 | relative viability (IU1-47 + Dasatinib; first compound 8 µM): 0.555 | relative viability (IU1-47 + Phenformin; first compound 0.08 µM): 0.634 | relative viability (IU1-47 + Phenformin; first compound 0.253 µM): 0.61 | relative viability (IU1-47 + Phenformin; first compound 0.8 µM): 0.642 | relative viability (IU1-47 + Phenformin; first compound 2.53 µM): 0.576 | relative viability (IU1-47 + Phenformin; first compound 8 µM): 0.551 | relative viability (FG-4592 + Luminespib; first compound 0.08 µM): 0.466 | relative viability (FG-4592 + Luminespib; first compound 0.253 µM): 0.547 | relative viability (FG-4592 + Luminespib; first compound 0.8 µM): 0.409 | relative viability (FG-4592 + Luminespib; first compound 2.53 µM): 0.492 | relative viability (FG-4592 + Luminespib; first compound 8 µM): 0.415 | relative viability (FG-4592 + Foretinib; first compound 0.08 µM): 0.825 | relative viability (FG-4592 + Foretinib; first compound 0.253 µM): 0.846 | relative viability (FG-4592 + Foretinib; first compound 0.8 µM): 0.795 | relative viability (FG-4592 + Foretinib; first compound 2.53 µM): 0.731 | relative viability (FG-4592 + Foretinib; first compound 8 µM): 0.724 | relative viability (FG-4592 + OSI-027; first compound 0.08 µM): 0.447 | relative viability (FG-4592 + OSI-027; first compound 0.253 µM): 0.447 | relative viability (FG-4592 + OSI-027; first compound 0.8 µM): 0.468 | relative viability (FG-4592 + OSI-027; first compound 2.53 µM): 0.416 | relative viability (FG-4592 + OSI-027; first compound 8 µM): 0.419 | relative viability (FG-4592 + Tozasertib; first compound 0.08 µM): 0.434 | relative viability (FG-4592 + Tozasertib; first compound 0.253 µM): 0.422 | relative viability (FG-4592 + Tozasertib; first compound 0.8 µM): 0.404 | relative viability (FG-4592 + Tozasertib; first compound 2.53 µM): 0.45 | relative viability (FG-4592 + Tozasertib; first compound 8 µM): 0.436 | relative viability (FG-4592 + Dasatinib; first compound 0.08 µM): 0.505 | relative viability (FG-4592 + Dasatinib; first compound 0.253 µM): 0.555 | relative viability (FG-4592 + Dasatinib; first compound 0.8 µM): 0.446 | relative viability (FG-4592 + Dasatinib; first compound 2.53 µM): 0.486 | relative viability (FG-4592 + Dasatinib; first compound 8 µM): 0.468 | relative viability (FG-4592 + Phenformin; first compound 0.08 µM): 0.607 | relative viability (FG-4592 + Phenformin; first compound 0.253 µM): 0.609 | relative viability (FG-4592 + Phenformin; first compound 0.8 µM): 0.595 | relative viability (FG-4592 + Phenformin; first compound 2.53 µM): 0.517 | relative viability (FG-4592 + Phenformin; first compound 8 µM): 0.542
